#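 Tested at 5 concentrations; 48 h exposure; 96-well plates; endpoints linearly interpolated, else capped at highest concentration. GI50 = concentration required for 50% inhibition of growth. The concentration for full growth arrest is given as TGI.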
# Legend:
# Experiment in all cases: NCI-60 cell line screen, 48 h
# TK-10 renal = system: TK-10 renal
# SN12C renal = system: SN12C renal
# HT29 colon = system: HT29 colon
# NCI-H23 lung = system: NCI-H23 lung
# HL-60(TB) leukemia = system: HL-60(TB) leukemia
# HCT-15 colon = system: HCT-15 colon
# MALME-3M melanoma = system: MALME-3M melanoma
# RPMI-8226 leukemia = system: RPMI-8226 leukemia
# SK-OV-3 ovarian = system: SK-OV-3 ovarian
# MDA-MB-435 = system: MDA-MB-435
SMILES,TGI (TK-10 renal),TGI (SN12C renal),TGI (HT29 colon),TGI (NCI-H23 lung),TGI (HL-60(TB) leukemia),TGI (HCT-15 colon),TGI (MALME-3M melanoma),TGI (RPMI-8226 leukemia),TGI (SK-OV-3 ovarian),GI50 (TK-10 renal),GI50 (SN12C renal),GI50 (HT29 colon),GI50 (NCI-H23 lung),GI50 (MDA-MB-435),TGI (MDA-MB-435),GI50 (HCT-15 colon),GI50 (RPMI-8226 leukemia),GI50 (SK-OV-3 ovarian),GI50 (HL-60(TB) leukemia)
COc1ccc(NC(=O)C2=CC(=O)c3ccc(O)cc3C2=O)c(OC)c1,> 100 µM,> 100 µM,> 100 µM,> 100 µM,> 100 µM,> 100 µM,> 100 µM,> 100 µM,–,–,–,–,–,–,–,–,–,–,–
O=C(O)c1ccccc1C1c2ccc(Cl)cc2Oc2cc(Cl)ccc21,> 100 µM,> 100 µM,> 100 µM,> 100 µM,> 100 µM,> 100 µM,> 100 µM,> 100 µM,> 100 µM,–,–,–,–,–,–,–,–,–,–
C=C1CCC2(C(C)=O)COC1(C)O2 (centres undefined),> 100 µM,> 100 µM,> 100 µM,> 10 µM,> 100 µM,> 100 µM,> 100 µM,> 100 µM,> 100 µM,–,–,–,–,–,–,–,–,–,–
CC(C)=Cc1cc(C(=O)NCCNC(=O)c2cc(C=C(C)C)nc(NC#N)n2)nc(NC#N)n1,> 100 µM,> 100 µM,> 100 µM,> 100 µM,> 100 µM,> 100 µM,> 100 µM,> 100 µM,> 100 µM,–,–,–,–,–,–,–,–,–,–
O=C1C(Cl)C(c2ccc([N+](=O)[O-])cc2)N1n1cnc2ccccc2c1=O (centres undefined),83.2 µM,> 100 µM,> 100 µM,> 100 µM,–,> 100 µM,> 100 µM,–,50.3 µM,–,–,–,–,–,–,–,–,–,–
O=c1sc(-c2nc3ccccc3[nH]2)c(/N=C/c2ccccc2)n1-c1ccccc1,> 100 µM,> 100 µM,> 100 µM,> 100 µM,> 100 µM,> 100 µM,> 100 µM,> 100 µM,89.1 µM,–,–,–,–,–,–,–,–,–,–
Cc1cc2c(C)nn(Cc3ccccc3Cl)c2c(C#N)c1C,> 100 µM,> 100 µM,> 100 µM,> 100 µM,> 100 µM,> 100 µM,> 100 µM,> 100 µM,> 100 µM,–,–,–,–,–,–,–,–,–,–
COc1ccc(OC)c(-c2cc(=O)c3cc4c(cc3[nH]2)OCO4)c1,> 83.3 µM,> 87.5 µM,> 100 µM,15.4 µM,> 26.1 µM,> 55.5 µM,> 100 µM,> 46.6 µM,17.7 µM,–,–,–,–,–,–,–,–,–,–
C/C(CC(=O)Nc1ccc([N+](=O)[O-])cc1)=N\Nc1ccc([N+](=O)[O-])cc1[N+](=O)[O-],> 100 µM,–,> 100 µM,> 100 µM,> 100 µM,> 100 µM,> 100 µM,> 100 µM,> 100 µM,–,–,–,–,–,–,–,–,–,–
COc1cc([C@@H]2c3cc4c(cc3[C@@H](NC(=O)c3ccc(OC(C)=O)cc3)C3COC(=O)[C@@H]32)OCO4)cc(OC)c1O (some centres undefined),30.8 µM,4.05 µM,29.5 µM,3.31 µM,0.688 µM,24.4 µM,11.1 µM,13.2 µM,7.88 µM,–,–,–,–,–,–,–,–,–,–
COc1cc(/C=C2\CC3C4CCC5=CC(=O)CC[C@]5(C)C4CC[C@]3(C)C2=O)ccc1OCCN1CCCCC1 (some centres undefined),6.96 µM,9.56 µM,64.8 µM,25.7 µM,–,16 µM,–,5.05 µM,48.7 µM,2.45 µM,2.79 µM,3.37 µM,5.33 µM,1.97 µM,4.28 µM,3.9 µM,1.88 µM,20.5 µM,–
c1cnc2nc3n(c2c1)CSC3,> 100 µM,> 100 µM,> 100 µM,> 100 µM,> 100 µM,> 100 µM,> 100 µM,> 100 µM,> 100 µM,–,–,–,–,–,–,–,–,–,–
O=C1C(=Cc2ccc([N+](=O)[O-])o2)C(=O)N(CCc2ccccc2)S(=O)(=O)N1CCc1ccccc1,> 100 µM,> 100 µM,> 100 µM,31.9 µM,41.9 µM,30.2 µM,32 µM,> 100 µM,> 100 µM,–,–,–,–,–,–,–,–,–,–
O=C(O)CCCc1cc2c(s1)-c1cccc3cccc-2c13,> 100 µM,80.4 µM,> 100 µM,41.2 µM,57.5 µM,51.8 µM,> 100 µM,72.5 µM,75.4 µM,–,–,–,–,–,–,–,–,–,–
C=CCCCC(O)c1ccc(C(O)c2cnc3ccccc3c2)o1 (centres undefined),67 µM,90.9 µM,> 100 µM,49.6 µM,–,> 100 µM,–,72.2 µM,> 100 µM,33.2 µM,30.9 µM,46.9 µM,14.3 µM,22.5 µM,48.4 µM,31.4 µM,17.9 µM,> 100 µM,–
O=C1CCCCCCCCCCOC(=O)CCCCCCCCCCO1,> 100 µM,> 100 µM,> 100 µM,> 100 µM,44.8 µM,> 100 µM,> 100 µM,–,> 100 µM,–,–,–,–,–,–,–,–,–,–
CCOC(=O)CP(=S)(S)c1ccccc1 (centres undefined),> 100 µM,> 100 µM,> 100 µM,> 100 µM,> 100 µM,–,> 100 µM,–,> 100 µM,–,–,–,–,–,–,–,–,–,–
C[C@H]1CCC2C(CN3CCCCC3)C(=O)OC2[C@]2(C)C(=O)CC(N3CCCCC3)C12O (some centres undefined),34.3 µM,14.8 µM,16.4 µM,25.9 µM,10.6 µM,–,47.5 µM,–,79.9 µM,–,–,–,–,–,–,–,–,–,–
COc1cc(OC)c(/C=C/C(=O)c2c(O)cc(OC)c(C3CCN(C)CC3)c2OC)c(OC)c1,–,–,1.5 µM,2.78 µM,3.99 µM,2.8 µM,–,2.83 µM,–,–,–,0.421 µM,1.41 µM,1.53 µM,2.92 µM,1.31 µM,1.11 µM,–,2.17 µM
COC(=O)c1cc2c(nc1C)-c1ccccc1OS2(=O)=O,> 100 µM,> 100 µM,> 100 µM,> 100 µM,> 100 µM,> 100 µM,> 100 µM,> 100 µM,> 100 µM,–,–,–,–,–,–,–,–,–,–
COC(=O)CC1NC(=O)C1C(C)(OC)OC (centres undefined),> 100 µM,> 100 µM,> 100 µM,> 100 µM,> 100 µM,> 100 µM,> 100 µM,> 100 µM,–,–,–,–,–,–,–,–,–,–,–
O=C(CC(=O)N1N=C(c2ccccc2)C(N=Nc2ccccc2Cl)C1=O)Nc1ccccc1Cl (centres undefined),40.6 µM,> 100 µM,44.6 µM,> 100 µM,25.9 µM,> 100 µM,–,57.2 µM,> 100 µM,–,–,–,–,–,–,–,–,–,–
